Measured values taken from patent US7041466B2, “Mouse disease model for evaluation of prophylactic and therapeutic treatments of Chlamydia” (priority 2002, dated 2006).
Entries after “also recorded” stand apart in the source; their conditions may differ. Like-named read-outs stand apart in the source and are kept apart here.

How the values were obtained:
C. psittaci = conditions: mouse, in vivo
NO production = conditions: mouse, in vivo
[1] = test system: IL-12p70, IFN-γ, NOS2, arginase I, arginase II in lung tissue; conditions: mouse, in vivo, 6 mg/kg
C. pneumoniae = conditions: mouse, in vivo
C. psittaci strain B577 = conditions: mouse, in vivo
splenic CD4+ T cells = conditions: mouse, in vivo, 6 mg/kg/day

Structure (SMILES): N=C(N)NN [AG, aminoguanidine]
- reduction of chlamydial lung burden (C. psittaci): more than 10 fold
- chlamydial burden on day 7 after secondary infection (C. psittaci; 100 mg/kg): substantially, but not significantly, higher
- disease (interstitial pneumonia) on day 7 after secondary infection (C. psittaci; 100 mg/kg): completely abolished disease; also recorded: completely abolished the development of interstitial pneumonia
- disease on day 7 after secondary infection (C. psittaci; 100 mg/kg): marginally increased
- day-4 serum nitrite/nitrate (NO production; 6 mg/kg/day): 73.2 ± 3.8 µM
- day-4 serum nitrite/nitrate (NO production; 200 mg/kg/day): 39.7 ± 2.9 µM
- serum nitrite/nitrate (NO production), change in words (NO production; ip): significantly reduced; also recorded: reduced NO production of infected C57BL/6 mice in a dose-dependent manner
- NOS2, arginase I and arginase II transcript levels on days 4 and 12 [1]: resembled those of BALB/c mice
- day-4 pulmonary IFN-γ transcripts [1]: significant increase
- day-4 pulmonary concentration of IL-12 p70 [1]: significant increase
- chlamydial lung loads after secondary infection (C. pneumoniae): reduced chlamydial lung loads
- gross lung disease after secondary infection (C. pneumoniae): free of gross lung disease
- interstitial pneumonia on day 7 after secondary infection (C. pneumoniae): completely abolished the development of interstitial pneumonia
- chlamydial lung burden on day 7 (C. psittaci strain B577): higher chlamydial burdens
- day-12 chlamydial lung burden (C. psittaci strain B577): greatly reduced
- day-12 disease (C. psittaci strain B577): did not show significant changes
- day-12 disease (lung weight increase) (C. psittaci strain B577): developed severe day-12 disease
- day-12 disease phenotype (lung weight increase) (C. psittaci strain B577): completely reversed the severe day-12 disease phenotype; also recorded: completely protected; also recorded: protected from disease
- disease outcomes and numbers of chlamydiae in lung tissue (C. psittaci strain B577): did not change disease outcomes
- elimination of chlamydiae from lungs after day 7 (C. psittaci strain B577): significantly more rapidly
- CD4+ splenocytes, day 4 (splenic CD4+ T cells): 28.0±0.55%

Structure (SMILES): CCC[C@H](N)C(=O)O [L-norvaline]
- day-4 serum nitrite/nitrate (NO production): 123.22 ± 38.8 µM
- serum nitrite/nitrate (NO production), change in words (NO production): significantly increased; also recorded: produced more NO
- chlamydial lung disease (lung weight increase), change in words (C. psittaci strain B577): significantly increased; also recorded: partially reverted to a disease phenotype
- chlamydial lung disease, change in words (C. psittaci strain B577): did not change the disease
